Test system: rabbit skeletal myofibrils (fast skeletal myofibrils)
Assay: Activation of fast skeletal myofibrils (PUMA assay, AC1.4)
Assay type: biochemical
Conditions: calcium at pCa25, AC1.4 = concentration at which the compound increased the enzymatic activity
Procedure: Preparation of fast skeletal myofibrils: Rabbit skeletal myofibrils were prepared based upon the method of Herrmann et al. (Biochem. 32(28):7255-7263(1993). Myofibrils were prepared from rabbit psoas muscle purchased from Pel-Freez Biologicals (Arkansas) within 2 days of ordering, stored on ice. Minced muscle was homogenized in 10 volumes of ice-cold “standard” buffer (50 mM Tris, pH 7.4, 0.1 M KOAc, 5 mM KCl, 2 mM dithiothreitol (DTT), 0.2 mM phenylmethylsulfonyl fluoride (PMSF), 10 μM leupeptin, 5 μM pepstatin, and 0.5 mM sodium azide) containing 5 mM ethylenediaminetetraacetic acid (EDTA) and 0.5% Triton X-100 using an Omni-Macro homogenizer. Myofibrils were recovered by low speed centrifugation (3000 rpm for 10 minutes) and washed 2 times in the Triton X-100 containing buffer to ensure removal of cellular membrane. Following the Triton washes, myofibrils were washed 3 times in “standard” buffer containing 2 mM magnesium acetate. A final wash in assay buffer (12 mM piperazine-1,4-bis(2-ethanesulfonic acid) (PIPES), pH 6.8, 60 mM KCl, 1 mM DTT) was performed and brought to 10% sucrose for flash freezing in liquid nitrogen and storage at −80° C.
Activation of Fast Skeletal Myofibrils: Fast fiber activators were identified by measuring the enzymatic activity of muscle myofibril preparations using the proprietary PUMA (trademark) (see, e.g., U.S. Pat. Nos. 6,410,254, 6,743,599, 7,202,051, and 7,378,254) assay system. Myofibril preparations consisted of rabbit skeletal muscle (approximately 90% fast fibers) that had been mechanically homogenized and washed with a detergent (Triton X-100) to remove cellular membranes. This preparation retained all of the sarcomeric components in a native conformation and the enzymatic activity was still regulated by calcium. Compounds were tested using a myofibril suspension and a level of calcium sufficient to increase enzymatic activity of the myofibrils to 25% of their maximal rate (termed pCa25). Enzymatic activity was tracked via a pyruvate kinase and lactate dehydrogenase-coupled enzyme system. This assay regenerates myosin-produced ADP into ATP by oxidizing NADH, producing an absorbance change at 340 nm. The buffering system was 12 mM PIPES, 2 mM MgCl2, 1 mM DTT at pH 6.8 (PM12 buffer). […] In Table 9, “Example Compound” refers to the compound labeled with the same number in Table 2.

SMILES | AC1.4 [µM]
CC[C@H](C)[C@H]1C(=O)Nc2ccccc2[C@@H]2COC(=O)N12 (single isomer, unassigned) [Compound 36] | 0.09
CC[C@H](C)[C@H]1C(=O)Nc2ccccc2[C@H](CO)N1C(N)=O (single isomer, unassigned) [Compound 37] | 0.26
CC[C@H](C)[C@H]1C(=O)Nc2ccccc2[C@H](C)N1C(=O)c1cnn(C)c1 (single isomer, unassigned) [Compound 38] | 0.10
CC[C@H](C)[C@H]1C(=O)Nc2ccccc2[C@H](C)N1C(N)=O (single isomer, unassigned) [Compound 39] | 0.17
CC[C@H](C)[C@H]1C(=O)Nc2ccccc2[C@@H](C(=O)OC)N1C(=O)c1cnn(C)c1 (single isomer, unassigned) [Compound 321] | 0.12
CC[C@H](C)[C@H]1C(=O)Nc2ccccc2CN1c1nccc(=O)[nH]1 [Compound 3, (S)-3-((S)-sec-Butyl)-4-(6-oxo-1,6-dihydropyrimidin-2-yl)-1,3,4,5-tetrahydro-2H-benzo[e][1,4]diazepin-2-one] | 0.09
CC[C@H](C)[C@H]1C(=O)Nc2ccccc2CN1c1nn[nH]n1 [Compound 4, (S)-3-((S)-sec-Butyl)-4-(2H-tetrazol-5-yl)-1,3,4,5-tetrahydro-2H-benzo[e][1,4]diazepin-2-one] | 0.21
CC[C@H](C)[C@H]1C(=O)Nc2ccccc2CN1C(N)=O [Compound 5, (S)-3-((S)-sec-Butyl)-2-oxo-1,2,3,5-tetrahydro-4H-benzo[e][1,4]diazepine-4-carboxamide] | 0.08
CC[C@H](C)[C@H]1C(=O)Nc2cncnc2CN1C(N)=O [Compound 11, (S)-7-((S)-sec-Butyl)-6-oxo-5,6,7,9-tetrahydro-8H-pyrimido[5,4-e][1,4]diazepine-8-carboxamide] | 1.30
CC[C@H](C)[C@H]1C(=O)Nc2cc(F)cnc2CN1C(N)=O [Compound 13, (S)-3-((S)-sec-Butyl)-8-fluoro-2-oxo-1,2,3,5-tetrahydro-4H-pyrido[3,2-e][1,4]diazepine-4-carboxamide] | 1.03
CC[C@H](C)[C@H]1C(=O)Nc2ccccc2-c2cnc(O)n21 [Compound 14, (S)-5-((S)-sec-Butyl)-3-hydroxy-5H-benzo[f]imidazo[1,5-d][1,4]diazepin-6(7H)-one] | 0.15
CC[C@H](C)[C@H]1C(=O)Nc2ccccc2CN1C(C)=O [Compound 15, (S)-4-Acetyl-3-((S)-sec-butyl)-1,3,4,5-tetrahydro-2H-benzo[e][1,4]diazepin-2-one] | 0.27
CC[C@H](C)[C@H]1C(=O)Nc2ccccc2CN1C(=O)c1cnn(CCO)c1 [Compound 16, (S)-3-((S)-sec-Butyl)-4-(1-(2-hydroxyethyl)-1H-pyrazole-4-carbonyl)-1,3,4,5-tetrahydro-2H-benzo[e][1,4]diazepin-2-one] | 0.14
CC[C@H](C)[C@H]1C(=O)Nc2ccccc2CN1C(=O)CN [Compound 17, (S)-3-((S)-sec-Butyl)-4-glycyl-1,3,4,5-tetrahydro-2H-benzo[e][1,4]diazepin-2-one] | 2.83
CC[C@H](C)[C@H]1C(=O)Nc2ccccc2CN1C(=O)CO [Compound 18, (S)-3-((S)-sec-Butyl)-4-(2-hydroxyacetyl)-1,3,4,5-tetrahydro-2H-benzo[e][1,4]diazepin-2-one] | 0.31
CC[C@H](C)[C@H]1C(=O)Nc2ccccc2CN1C(=N)N [Compound 19, (S)-3-((S)-sec-Butyl)-2-oxo-1,2,3,5-tetrahydro-4H-benzo[e][1,4]diazepine-4-carboximidamide] | 0.13
CC[C@H](C)[C@H]1C(=O)Nc2ccccc2CN1C(=O)OC [Compound 20, Methyl (S)-3-((S)-sec-butyl)-2-oxo-1,2,3,5-tetrahydro-4H-benzo[e][1,4]diazepine-4-carboxylate] | 0.25

SMILES | AC1.4 [µM]
CC[C@H](C)[C@H]1C(=O)Nc2ccccc2CN1/C(=N/C#N)N(C)C [Compound 21, (S,E)-3-((S)-sec-Butyl)-N′-cyano-N,N-dimethyl-2-oxo-1,2,3,5-tetrahydro-4H-benzo[e][1,4]diazepine-4-carboximidamide] | 0.18
CC[C@H](C)[C@H]1C(=O)Nc2ccccc2CN1/C(N)=N/C(=O)OC [Compound 22, Methyl ((E)-amino((S)-3-((S)-sec-butyl)-2-oxo-1,2,3,5-tetrahydro-4H-benzo[e][1,4]diazepin-4-yl)methylene)carbamate] | 0.07
CC[C@H](C)[C@H]1C(=O)Nc2ccccc2CN1c1nc(O)cc(=O)[nH]1 [Compound 23, (S)-3-((S)-sec-Butyl)-4-(4-hydroxy-6-oxo-1,6-dihydropyrimidin-2-yl)-1,3,4,5-tetrahydro-2H-benzo[e][1,4]diazepin-2-one] | 0.16
CC[C@H](C)[C@H]1C(=O)Nc2ccccc2CN1c1ncc(N)c(=O)[nH]1 [Compound 24, (S)-4-(5-Amino-4-hydroxypyrimidin-2-yl)-3-((S)-sec-butyl)-1,3,4,5-tetrahydro-2H-benzo[e][1,4]diazepin-2-one] | 0.08
CC[C@H](C)[C@H]1C(=O)Nc2ccccc2CN1c1noc(=O)[nH]1 [Compound 25, 3-((S)-3-((S)-sec-Butyl)-2-oxo-1,2,3,5-tetrahydro-4H-benzo[e][1,4]diazepin-4-yl)-1,2,4-oxadiazol-5(4H)-one] | 0.12
CC[C@H](C)[C@H]1C(=O)Nc2ccccc2CN1S(C)(=O)=O [Compound 26, (S)-3-((S)-sec-Butyl)-4-(methylsulfonyl)-1,3,4,5-tetrahydro-2H-benzo[e][1,4]diazepin-2-one] | 0.78
CC[C@H](C)[C@H]1C(=O)Nc2ccccc2CN1S(=O)(=O)N(C)C [Compound 27, (S)-3-((S)-sec-Butyl)-N,N-dimethyl-2-oxo-1,2,3,5-tetrahydro-4H-benzo[e][1,4]diazepine-4-sulfonamide] | 0.23
CC(=O)N1Cc2ccccc2NC(=O)[C@@H]1C1CCCCC1 [Compound 28, (S)-4-acetyl-3-cyclohexyl-1,3,4,5-tetrahydro-2H-benzo[e][1,4]diazepin-2-one] | 0.28
NC(=O)N1Cc2ccccc2NC(=O)[C@@H]1C1CCCCC1 [Compound 29, (S)-3-Cyclohexyl-2-oxo-1,2,3,5-tetrahydro-4H-benzo[e][1,4]diazepine-4-carboxamide] | 0.22
CC[C@H](C)[C@H]1C(=O)Nc2ccccc2CN1c1c(N2CC(O)C2)c(=O)c1=O [Compound 30, 3-((S)-3-((S)-sec-Butyl)-2-oxo-1,2,3,5-tetrahydro-4H-benzo[e][1,4]diazepin-4-yl)-4-(3-hydroxyazetidin-1-yl)cyclobut-3-ene-1,2-dione] | 0.08
CC[C@H](C)[C@H]1C(=O)Nc2ccccc2CN1C(=O)NC [Compound 31, (S)-3-((S)-sec-Butyl)-N-methyl-2-oxo-1,2,3,5-tetrahydro-4H-benzo[e][1,4]diazepine-4-carboxamide] | 0.21
CC[C@H](C)[C@H]1C(=O)Nc2ccccc2CN1C(=O)C(N)=O [Compound 33, 2-((S)-3-((S)-sec-Butyl)-2-oxo-1,2,3,5-tetrahydro-4H-benzo[e][1,4]diazepin-4-yl)-2-oxoacetamide] | 1.14
CC[C@H](C)[C@H]1C(=O)Nc2ccccc2CN1c1nc(C)ns1 [Compound 34, (S)-3-((S)-sec-Butyl)-4-(3-methyl-1,2,4-thiadiazol-5-yl)-1,3,4,5-tetrahydro-2H-benzo[e][1,4]diazepin-2-one] | 0.09
CC[C@H](C)[C@H]1C(=O)Nc2ccccc2CN1c1nccs1 [Compound 35, (3S)-3-[(2S)-Butan-2-yl]-4-(1,3-thiazol-2-yl)-1,3,4,5-tetrahydro-2H-1,4-benzodiazepin-2-one] | 0.07
CC[C@H](C)[C@H]1C(=O)Nc2ccccc2C(C(=O)NC)N1C(N)=O (stereo partly drawn) [Compound 40, (3S)-3-((S)-sec-Butyl)-N^5-methyl-2-oxo-1,2,3,5-tetrahydro-4H-benzo[e][1,4]diazepine-4,5-dicarboxamide] | 2.57
CC(C)[C@H]1C(=O)Nc2ccccc2CN1C(=O)c1cnn(C)c1 [Compound 41, (S)-3-Isopropyl-4-(1-methyl-1H-pyrazole-4-carbonyl)-1,3,4,5-tetrahydro-2H-benzo[e][1,4]diazepin-2-one] | 0.96
CC[C@H](C)[C@H]1C(=O)Nc2cc(F)ccc2CN1C(=O)CO [Compound 42, (S)-3-((S)-sec-butyl)-8-fluoro-4-(2-hydroxyacetyl)-1,3,4,5-tetrahydro-2H-benzo[e][1,4]diazepin-2-one] | 0.33
